These results are taken from EP0670315A1, “Triazole oxime derivatives having antimycotic acitivity” (priority 1994, dated 1995).

SMILES strings stand for the structures.

The conditions of series [1]: reported in prior art; cited from earlier work.
Series [2] deals with Aspergillus fumigatus strain IFM41944. Description: Treatment of infection, protocol 1: mice infected with Aspergillus fumigatus, oral treatment, survival. The class given is in vivo. The conditions noted are these: Aspergillus fumigatus, IFM41944; ICR male mice, i.v. infection 1 × 10⁷ conidia; oral one hour after infection and following four days once a day; survival at 7th day; Litchfield-Wilcoxon; read-out: ED₅₀. As for the experimental part: Mice infected with Aspergillus fumigatus were administered selected compounds of the invention orally and their therapeutic effect was measured. Stated specifically, ICR male mice (4-wk old) in groups each consisting of 10 animals were injected with Aspergillus fumigatus strain IFM41944 by injecting it into the tail vein at a concentration of 1 × 10⁷ conidia per animal. Each test compound was administered orally to the mice one hour after the infection and for the following four continuous days on a once-a-day basis. The number of mice that survived at the 7th day of the infection was counted (the day of infection was day "zero") and the ED₅₀ of each test compound was calculated by the Litchfield-Wilcoxon method to estimate its therapeutic effect.

Series [3] is described as follows: Toxicity test, repeated oral administration to mice. Format: in vivo. Conditions: 4-wk old mice, 5 consecutive days, 100 mg/kg. As for the experimental part: The four selected compounds of the invention (those prepared in Examples 1, 2, 9 and 30) were administered orally to 4-wk old mice for 5 consecutive days at a dose of 100 mg/kg.
Series [4] is described as follows: Solubility (usefulness as injections). The class given is physicochemical.

As to `CON=CC(C)(C)C(O)(Cn1cncn1)c1ccc(Cl)cc1` (racemic) [Bay R 3783, (±)-3-(4-chlorophenyl)-2,2-dimethyl-3-hydroxy-4-(1,2,4-triazole-1-yl)butanol-oxime O-methylether], the “hepatotoxicity as a side effect” value in series [1] is listed as “has hepatotoxicity as a side effect”.

Regarding `CC(C)C(=NOCn1cncn1)C1(C(O)(Cn2cncn2)c2ccc(F)cc2F)CC1` (stereo not shown) [Example 30, 1-[1-[1-(2,4-difluorophenyl)-1-hydroxy-2-(1H-1,2,4-triazol-1-yl)ethyl]cyclopropyl]-2-methyl-1-propanone O-[(1H-1,2,4-triazol-1-yl)methyl]oxime], the ED50 in series [2] worked out at 43.4 mg/kg. Also, in series [3], the evidence for abnormality entry was “no evidence for abnormality”. Also, the solubility entry in series [4] was “good enough solubility to be useful as injections”.
